According to ChEMBL document CHEMBL5665443, “Enzyme Inhibitor Single Concentration assay results for EUbOPEN Chemogenomics Library” (2024):

What was measured:
[1] = molecular target: Methyl-CpG-binding domain protein 4 (Homo sapiens) (UniProt O95243); details: Compound Concentration 10.0 uM;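 note: MBD4 activity read as fluorescence at 594 nm from cleavage and release of a quenched duplex DNA oligonucleotide, with APE1 coupled to incise the strand and raise turnover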
Description: Inhibition of MBD4 by quantifying inhibition of MBD4-mediated cleavage and dissociation of quenched duplex DNA oligonucleotides, measured as fluorescence at 594 nm. To generate a functional strand incision and increase turn-over this assay is coupled to APE1.

[2] = molecular target: DNA-3-methyladenine glycosylase (Homo sapiens) (UniProt P29372); details: Compound Concentration 10.0 uM;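 note: enzyme assay where MPG cuts a quenched duplex DNA oligonucleotide probe, paired with APE1 for strand incision and turnover, read as fluorescence at 594 nm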
Description: Inhibition of MPG by quantifying inhibition of MPG-mediated cleavage and dissociation of quenched duplex DNA oligonucleotides, measured as fluorescence at 594 nm. To generate a functional strand incision and increase turn-over this assay is coupled to APE1.

[3] = molecular target: T1, Adenine DNA glycosylase (Homo sapiens) (UniProt Q9UIF7); details: Compound Concentration 10.0 uM, Hit No;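 note: human MUTYH activity read as 594 nm fluorescence from cleavage and release of a quenched DNA duplex, coupled with APE1 for strand incision, lower signal meaning inhibition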
T1 sequence (whole entry): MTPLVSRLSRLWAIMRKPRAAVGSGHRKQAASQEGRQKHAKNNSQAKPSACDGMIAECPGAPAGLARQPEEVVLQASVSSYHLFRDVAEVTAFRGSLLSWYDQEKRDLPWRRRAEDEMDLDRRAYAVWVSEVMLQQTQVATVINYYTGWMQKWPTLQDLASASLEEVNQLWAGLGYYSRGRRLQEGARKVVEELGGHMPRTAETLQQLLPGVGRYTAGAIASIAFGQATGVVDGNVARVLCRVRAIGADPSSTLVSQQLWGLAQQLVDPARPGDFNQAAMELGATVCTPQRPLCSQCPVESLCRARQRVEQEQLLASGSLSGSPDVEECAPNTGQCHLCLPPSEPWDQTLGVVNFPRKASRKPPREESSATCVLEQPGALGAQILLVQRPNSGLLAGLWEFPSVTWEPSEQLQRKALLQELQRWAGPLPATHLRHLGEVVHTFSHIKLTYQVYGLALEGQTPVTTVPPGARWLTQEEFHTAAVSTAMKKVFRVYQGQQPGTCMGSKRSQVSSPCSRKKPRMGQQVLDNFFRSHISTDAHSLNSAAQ
Description: Inhibition of MUTYH by quantifying inhibition of MUTYH-mediated cleavage and dissociation of quenched duplex DNA oligonucleotides, measured as fluorescence at 594 nm. To generate a functional strand incision and increase turn-over this assay is coupled to APE1.

[4] = molecular target: Endonuclease 8-like 1 (Homo sapiens) (UniProt Q96FI4); details: Compound Concentration 10.0 uM, Hit No;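 note: fluorescence at 594 nm from quenched duplex DNA oligonucleotides released by NEIL1 cleavage and strand separation, reported as reduction of this enzyme activity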
Description: Inhibition of NEIL1 by quantifying inhibition of NEIL1-mediated cleavage and dissociation of quenched duplex DNA oligonucleotides, measured as fluorescence at 594 nm.

[5] = molecular target: T2, Endonuclease 8-like 2 (Homo sapiens) (UniProt Q969S2); details: Compound Concentration 10.0 uM, Hit No;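 note: fluorescence at 594 nm reports NEIL2 cutting and release of a quenched double-stranded DNA oligo substrate, reduced signal read as inhibition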
T2 sequence (whole entry): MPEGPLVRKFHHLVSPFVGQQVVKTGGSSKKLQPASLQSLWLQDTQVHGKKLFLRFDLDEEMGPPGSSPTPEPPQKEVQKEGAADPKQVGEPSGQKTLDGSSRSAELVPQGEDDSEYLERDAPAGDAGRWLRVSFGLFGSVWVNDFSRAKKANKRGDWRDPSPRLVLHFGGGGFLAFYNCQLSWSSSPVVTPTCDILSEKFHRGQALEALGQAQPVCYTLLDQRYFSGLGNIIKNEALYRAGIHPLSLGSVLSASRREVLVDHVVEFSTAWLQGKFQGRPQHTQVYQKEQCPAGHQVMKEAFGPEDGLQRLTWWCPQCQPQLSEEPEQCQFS
Description: Inhibition of NEIL2 by quantifying inhibition of NEIL2-mediated cleavage and dissociation of quenched duplex DNA oligonucleotides, measured as fluorescence at 594 nm.

[6] = molecular target: T3, Endonuclease III-like protein 1 (Homo sapiens) (UniProt P78549); details: Compound Concentration 10.0 uM, Hit No;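 note: enzyme assay tracking NTHL1 cutting and release of a quenched double-stranded DNA oligo substrate, read as fluorescence at 594 nm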
T3 sequence (whole entry): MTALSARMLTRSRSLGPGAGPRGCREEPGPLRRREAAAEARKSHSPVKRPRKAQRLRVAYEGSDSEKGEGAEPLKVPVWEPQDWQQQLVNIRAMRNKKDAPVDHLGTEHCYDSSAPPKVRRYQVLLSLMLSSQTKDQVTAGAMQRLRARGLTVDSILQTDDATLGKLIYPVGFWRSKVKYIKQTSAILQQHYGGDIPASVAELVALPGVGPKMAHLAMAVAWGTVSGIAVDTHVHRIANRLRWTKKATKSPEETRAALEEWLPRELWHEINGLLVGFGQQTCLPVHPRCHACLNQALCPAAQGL
Description: Inhibition of NTHL1 by quantifying inhibition of NTHL1-mediated cleavage and dissociation of quenched duplex DNA oligonucleotides, measured as fluorescence at 594 nm.

[7] = molecular target: N-glycosylase/DNA lyase (Homo sapiens) (UniProt O15527); details: Compound Concentration 10.0 uM;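 note: OGG1 cleavage of a quenched duplex DNA oligonucleotide, coupled to APE1 for strand incision, read as fluorescence at 594 nm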
Description: Inhibition of OGG1 by quantifying inhibition of OGG1-mediated cleavage and dissociation of quenched duplex DNA oligonucleotides, measured as fluorescence at 594 nm. To generate a functional strand incision and increase turn-over this assay is coupled to APE1.

[8] = molecular target: T4, Single-strand selective monofunctional uracil DNA glycosylase (Homo sapiens) (UniProt Q53HV7); details: Compound Concentration 10.0 uM, Hit No;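 note: enzymatic SMUG1 assay coupled with APE1, reading fluorescence at 594 nm released when a quenched double-stranded DNA oligonucleotide substrate is cleaved and separated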
T4 sequence (whole entry): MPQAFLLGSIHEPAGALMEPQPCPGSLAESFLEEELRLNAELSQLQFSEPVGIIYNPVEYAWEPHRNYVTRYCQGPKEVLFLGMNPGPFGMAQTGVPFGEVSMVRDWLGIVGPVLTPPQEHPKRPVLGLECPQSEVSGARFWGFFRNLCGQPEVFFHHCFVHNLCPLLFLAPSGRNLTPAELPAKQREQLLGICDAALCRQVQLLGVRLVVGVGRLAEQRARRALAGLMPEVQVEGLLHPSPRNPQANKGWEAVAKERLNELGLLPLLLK
Description: Inhibition of SMUG1 by quantifying inhibition of SMUG1-mediated cleavage and dissociation of quenched duplex DNA oligonucleotides, measured as fluorescence at 594 nm. To generate a functional strand incision and increase turn-over this assay is coupled to APE1.

[9] = molecular target: G/T mismatch-specific thymine DNA glycosylase (Homo sapiens) (UniProt Q13569); details: Compound Concentration 10.0 uM;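 note: human TDG cleavage of quenched duplex DNA oligonucleotides coupled to APE1, strand release read as fluorescence at 594 nm, inhibition of TDG activity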
Description: Inhibition of TDG by quantifying inhibition of TDG-mediated cleavage and dissociation of quenched duplex DNA oligonucleotides, measured as fluorescence at 594 nm. To generate a functional strand incision and increase turn-over this assay is coupled to APE1.

[10] = molecular target: Uracil-DNA glycosylase (Homo sapiens) (UniProt P13051); details: Compound Concentration 10.0 uM, Hit No;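 note: UNG excision on a quenched double-stranded DNA oligo probe, with APE1 added for strand incision and turnover, read as fluorescence at 594 nm as strands separate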
Uracil-DNA glycosylase (Homo sapiens), sequence (P13051 whole entry): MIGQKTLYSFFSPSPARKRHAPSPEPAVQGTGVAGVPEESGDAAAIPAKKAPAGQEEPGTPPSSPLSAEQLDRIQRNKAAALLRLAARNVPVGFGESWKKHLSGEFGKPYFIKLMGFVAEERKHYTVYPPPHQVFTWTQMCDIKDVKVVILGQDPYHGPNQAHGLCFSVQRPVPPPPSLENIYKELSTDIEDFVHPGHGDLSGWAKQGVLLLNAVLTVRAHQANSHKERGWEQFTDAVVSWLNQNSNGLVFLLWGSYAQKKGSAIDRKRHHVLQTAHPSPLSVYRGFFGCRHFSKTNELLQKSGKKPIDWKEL
Description: Inhibition of UNG by quantifying inhibition of UNG-mediated cleavage and dissociation of quenched duplex DNA oligonucleotides, measured as fluorescence at 594 nm. To generate a functional strand incision and increase turn-over this assay is coupled to APE1.

N-glycosylase/DNA lyase (Homo sapiens), sequence (O15527 whole entry): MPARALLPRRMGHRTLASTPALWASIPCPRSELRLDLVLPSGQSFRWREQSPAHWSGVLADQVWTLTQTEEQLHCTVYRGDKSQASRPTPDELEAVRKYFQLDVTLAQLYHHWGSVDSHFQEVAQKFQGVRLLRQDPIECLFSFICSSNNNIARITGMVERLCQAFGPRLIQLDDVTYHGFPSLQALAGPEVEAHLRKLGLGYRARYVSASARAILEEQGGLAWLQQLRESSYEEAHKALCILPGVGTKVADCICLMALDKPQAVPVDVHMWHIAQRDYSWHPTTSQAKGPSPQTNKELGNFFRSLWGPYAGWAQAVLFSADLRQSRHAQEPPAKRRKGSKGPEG
G/T mismatch-specific thymine DNA glycosylase (Homo sapiens), sequence (Q13569 whole entry): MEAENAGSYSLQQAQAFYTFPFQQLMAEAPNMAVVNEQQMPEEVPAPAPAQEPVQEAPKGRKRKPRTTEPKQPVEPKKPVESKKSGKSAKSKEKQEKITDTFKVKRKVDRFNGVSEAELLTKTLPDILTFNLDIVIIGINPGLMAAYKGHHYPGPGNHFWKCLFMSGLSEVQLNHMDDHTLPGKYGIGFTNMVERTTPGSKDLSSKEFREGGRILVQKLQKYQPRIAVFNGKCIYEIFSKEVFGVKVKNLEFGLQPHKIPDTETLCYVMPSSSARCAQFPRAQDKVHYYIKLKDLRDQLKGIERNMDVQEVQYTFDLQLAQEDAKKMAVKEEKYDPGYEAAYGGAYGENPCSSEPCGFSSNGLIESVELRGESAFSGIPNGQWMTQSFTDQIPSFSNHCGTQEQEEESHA
DNA-3-methyladenine glycosylase (Homo sapiens), sequence (P29372 whole entry): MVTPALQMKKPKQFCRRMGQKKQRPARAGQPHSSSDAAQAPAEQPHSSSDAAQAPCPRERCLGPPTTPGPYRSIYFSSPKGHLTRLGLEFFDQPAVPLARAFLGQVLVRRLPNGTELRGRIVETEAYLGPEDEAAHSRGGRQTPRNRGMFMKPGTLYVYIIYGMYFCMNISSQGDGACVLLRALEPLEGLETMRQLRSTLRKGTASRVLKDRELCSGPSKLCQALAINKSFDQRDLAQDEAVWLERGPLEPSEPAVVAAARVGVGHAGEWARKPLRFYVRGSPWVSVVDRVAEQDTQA
Endonuclease 8-like 1 (Homo sapiens), sequence (Q96FI4 whole entry): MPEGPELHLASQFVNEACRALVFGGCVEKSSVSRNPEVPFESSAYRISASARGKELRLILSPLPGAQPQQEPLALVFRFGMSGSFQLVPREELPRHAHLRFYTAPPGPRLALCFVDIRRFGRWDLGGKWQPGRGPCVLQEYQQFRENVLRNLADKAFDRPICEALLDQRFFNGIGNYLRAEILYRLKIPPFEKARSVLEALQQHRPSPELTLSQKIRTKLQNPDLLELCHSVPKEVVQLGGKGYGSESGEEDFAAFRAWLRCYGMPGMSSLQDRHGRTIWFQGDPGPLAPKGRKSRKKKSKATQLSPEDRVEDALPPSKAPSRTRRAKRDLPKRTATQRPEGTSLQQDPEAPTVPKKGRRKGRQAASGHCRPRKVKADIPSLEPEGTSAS
Methyl-CpG-binding domain protein 4 (Homo sapiens), sequence (O95243 whole entry, the tested form may be a part): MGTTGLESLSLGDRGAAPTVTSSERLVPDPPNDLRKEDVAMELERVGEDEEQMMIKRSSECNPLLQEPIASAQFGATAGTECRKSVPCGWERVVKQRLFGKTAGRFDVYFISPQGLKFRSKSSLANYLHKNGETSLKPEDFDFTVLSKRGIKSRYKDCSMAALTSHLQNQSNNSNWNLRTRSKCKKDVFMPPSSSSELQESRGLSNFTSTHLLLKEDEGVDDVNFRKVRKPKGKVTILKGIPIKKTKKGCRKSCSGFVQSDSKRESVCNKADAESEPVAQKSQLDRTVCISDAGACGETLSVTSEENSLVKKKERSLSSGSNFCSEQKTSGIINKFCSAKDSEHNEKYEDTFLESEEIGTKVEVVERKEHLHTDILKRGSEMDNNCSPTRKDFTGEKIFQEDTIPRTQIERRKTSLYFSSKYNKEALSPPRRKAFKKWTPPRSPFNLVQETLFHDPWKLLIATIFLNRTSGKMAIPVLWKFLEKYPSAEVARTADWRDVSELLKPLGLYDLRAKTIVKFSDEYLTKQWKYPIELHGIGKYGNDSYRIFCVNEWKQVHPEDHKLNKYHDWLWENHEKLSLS

| SMILES | inhibition ([1]; Hit No) [%] | inhibition ([2]; Hit No) [%] | inhibition [3] [%] | inhibition [4] [%] | inhibition [5] [%] | inhibition [6] [%] | inhibition ([7]; Hit No) [%] | inhibition [8] [%] | inhibition ([9]; Hit No) [%] | inhibition [10] [%] | inhibition ([7]; Hit Yes) [%] | inhibition ([1]; Hit Yes) [%] | inhibition ([2]; Hit Yes) [%] | inhibition ([9]; Hit Yes) [%] |
| --- | --- | --- | --- | --- | --- | --- | --- | --- | --- | --- | --- | --- | --- | --- |
| CCOC(=O)C1=C(C)NC(C)=C(C(=O)OC)C1c1cccc([N+](=O)[O-])c1 (stereo not given) | -5.63 | 2.85 | -7.47 | 1.49 | -2.39 | 12.9 | -2.89 | 2.81 | 1.01 | -2.15 | – | – | – | – |
| CC1(C)CCC[C@]2(C)[C@@H](C=O)C(C=O)=CC[C@@H]12 | 54.4 | 14.4 | 80.5 | -1.47 | 8.57 | -1.08 | – | 16.1 | 49 | 2.98 | 88.4 | – | – | – |
| Cc1ccnc(Nc2nc(-c3ccccn3)cs2)c1 | 9.11 | 16 | 13.9 | -0.88 | 9.84 | 17.1 | -1.19 | 5.18 | 17.8 | -7.33 | – | – | – | – |
| Cn1ncnc1COc1nn2c(-c3cc(F)ccc3F)nnc2cc1C(C)(C)C | 6.48 | -8.96 | -2.13 | 1.64 | -8.5 | -7.69 | -6.92 | -5.72 | 6.81 | -5.8 | – | – | – | – |
| O=c1c(Br)ccc2n1C[C@@H]1CNC[C@H]2C1 | 13.1 | 3.69 | -5.79 | 1.79 | -6.72 | 8.82 | -1.3 | 8.97 | 22.8 | -0.226 | – | – | – | – |
| COCCOCCn1nc2c(c1C)-c1c(Cl)ccc3c1c(C)c(C(=O)O)n3CCCOc1cc(cc3c(F)c(Cl)ccc13)CCc1cc(nn1C)CSC2 | 77.7 | 52.2 | 36 | -6.35 | 5.63 | -0.959 | 28.8 | 17.3 | 59.9 | 9.88 | – | – | – | – |
| NCCc1c[nH]cn1 | 10.4 | -7.46 | 10.5 | -0.352 | -0.234 | 15.1 | 0.419 | -0.0333 | 7.61 | -7.79 | – | – | – | – |
| NCCc1c[nH]c2ccc(O)cc12 | -6.88 | 21.8 | 2.2 | 5.88 | 9.75 | 1.92 | -2.75 | -6.38 | 20.7 | -8.18 | – | – | – | – |
| Cc1cccc(F)c1C(=O)Nc1cnc(-c2cc3c(cc2Cl)OC(F)(F)O3)cn1 | 7.48 | 18.4 | 6.43 | 1.79 | 6.27 | 8.82 | -4.79 | 9.65 | -9.45 | -6.24 | – | – | – | – |
| CCc1cc(C(C)=O)c(O)cc1OCCCCCC(C)(C)c1nn[nH]n1 | 24 | 13 | 7.7 | -0.204 | -8.97 | 9.99 | 16.1 | 0.79 | 21.1 | -4.34 | – | – | – | – |
| CC[C@H]1[C@@H](O)[C@@H]2[C@H](CC[C@]3(C)[C@@H]([C@H](C)CCC(=O)O)CC[C@@H]23)[C@@]2(C)CC[C@@H](O)C[C@@H]12 | 77.2 | 17.5 | 24.4 | 1.53 | 1.55 | 1.34 | 26.2 | 27.8 | 67.3 | 5.49 | – | – | – | – |
| N#Cc1c(O)nc(SCc2cccc(F)c2F)nc1C1CC1 | 31 | 5.35 | 43.4 | -3.76 | 6.5 | 17.3 | 21.3 | 14.3 | 26.8 | -3.9 | – | – | – | – |
| O=C(O)C[C@H]1CCc2c1[nH]c1ccc(OCc3ccc(C4CCCC4)c(C(F)(F)F)c3)cc21 | 47.5 | 18.9 | 9.75 | -9.84 | 0.515 | 36.4 | 34.1 | -8.03 | 45 | -6.26 | – | – | – | – |
| CC[C@H](C(=O)Nc1ccccc1N1CCCC1)c1ccccc1 | 34.6 | 33.7 | 20.6 | 13.8 | 3.22 | 2.22 | 0.561 | 1.62 | 33.1 | -2.53 | – | – | – | – |
| O=C(O)c1ccccc1S(=O)(=O)NCCCCN1C(=O)c2cccc3cccc(c23)C1=O | 12 | 3.23 | 23.6 | 8.25 | 8 | -8.34 | 2.55 | 12.5 | 16.1 | -8.5 | – | – | – | – |
| COc1ccc(NC(=O)c2ccc(-c3ccc(-c4noc(C)n4)cc3C)cc2)cc1OCCN(C)C | – | – | 104 | 1.34 | -1.11 | 8.82 | -3.51 | -6.46 | – | 2 | – | 98 | 83.7 | 101 |
| CCCCCCCCc1ccc(CC[C@](N)(CO)COP(=O)(O)O)cc1 | -2.75 | 7.62 | 6.04 | 9.14 | 6.75 | -3.94 | 0.481 | 0.742 | 7.26 | -7.46 | – | – | – | – |
| O=C(Nc1ccccc1Br)N[C@@H]1CCN(c2ccc(C(F)(F)F)cn2)C1 | 41.6 | 35.3 | 26.9 | -1.77 | 2.71 | 6.35 | 3.57 | 15 | 27.5 | 2.31 | – | – | – | – |
| c1ccc2nc(N3CCNCC3)ccc2c1 | -0.572 | -3.87 | 11.1 | 8.31 | 7.8 | 13.8 | -7.23 | 2.02 | 12.3 | 1.1 | – | – | – | – |
| CCOC(=O)N[C@@H]1CC[C@@H]2[C@@H](C1)C[C@H]1C(=O)O[C@H](C)[C@H]1[C@H]2/C=C/c1ccc(-c2cccc(F)c2)cn1 | -1.19 | -7.15 | 1.43 | 5.28 | -1.73 | 2.66 | 8.48 | 10.5 | 13.4 | -5.33 | – | – | – | – |
| Nc1nc2c(c(N3CCNCC3)n1)CCC1=C2[C@@H]2CCCC[C@@H]2O1 | 0.963 | -2.48 | 3.48 | -3.91 | 4.51 | 7.79 | -5.22 | 13.7 | 6.18 | -2.85 | – | – | – | – |
